In the supplement of paper PMC8967900:

Key:
Assay in all cases: selective drug sensitivity score (sDSS, relative to normal bone marrow) (sDSS (score)); higher = more potent and effective on the cell line relative to normal bone marrow cells
Settings in all cases: 72 h
[1] = tested on: COG-LL-394h
[2] = tested on: HPB-ALL
[3] = tested on: CCRF-HSB2
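Further: ALL cell lines in 384-well plates, five doses spanning 10,000-fold, each plate scaled between vehicle and 100 µmol/L benzalkonium chloride controls, sDSS an adapted area-under-curve metric.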

COc1c(OCCCN2CCOCC2)ccc2c1N=C(NC(=O)c1cnc(N)nc1)N1CCN=C21 [Copanlisib] (top concentration 1000 nM)
selective drug sensitivity score [1]: -0.82
selective drug sensitivity score [2]: 0.48
selective drug sensitivity score [3]: 1.98

Cn1c(=O)n(-c2ccc(C(C)(C)C#N)cc2)c2c3cc(-c4cnc5ccccc5c4)ccc3ncc21 [Dactolisib] (top concentration 1000 nM)
selective drug sensitivity score [1]: -3.94
selective drug sensitivity score [2]: 1.36
selective drug sensitivity score [3]: 11.1

O=C(/C=C/c1cccnc1)NCCCCC1CCN(C(=O)c2ccccc2)CC1 [Daporinad] (top concentration 1000 nM)
selective drug sensitivity score [1]: -4.44
selective drug sensitivity score [2]: 7.96
selective drug sensitivity score [3]: 6.76

CC(=O)N(O)CCCCCNC(=O)CCC(=O)N(O)CCCCCNC(=O)CCC(=O)N(O)CCCCCN [Deferoxamine] (top concentration 10000 nM)
selective drug sensitivity score [1]: 0.76
selective drug sensitivity score [2]: 4.06
selective drug sensitivity score [3]: 4.86

Cc1cc(Nc2cc(N3CCN(C)CC3)nc(/C=C/c3ccccc3)n2)n[nH]1 [ENMD-2076] (top concentration 10000 nM)
selective drug sensitivity score [1]: 1.44
selective drug sensitivity score [2]: 4.44
selective drug sensitivity score [3]: 9.74

Cc1cnc(Nc2ccc(OCCN3CCCC3)cc2)nc1Nc1cccc(S(=O)(=O)NC(C)(C)C)c1 [Fedratinib] (top concentration 10000 nM)
selective drug sensitivity score [1]: 0.14
selective drug sensitivity score [2]: 0.14
selective drug sensitivity score [3]: 0.54

COc1ccc(-c2nc(N3CCOCC3)c3sc(CN(C)c4ncc(C(=O)NO)cn4)cc3n2)cn1 [Fimepinostat (CUDC-907)] (top concentration 10000 nM)
selective drug sensitivity score [1]: 3.28
selective drug sensitivity score [2]: -4.02
selective drug sensitivity score [3]: 1.68

CCOC(=O)CCNc1cc(N2CCc3ccccc3CC2)nc(-c2ccccn2)n1 [GSK-J4] (top concentration 100000 nM)
selective drug sensitivity score [1]: -9.68
selective drug sensitivity score [2]: 1.62
selective drug sensitivity score [3]: -7.18

Cc1cc(Nc2cc(CN3CCOCC3)c3nc(C)c(Cc4ccc(Cl)cc4F)n3n2)n[nH]1 [Gandotinib] (top concentration 10000 nM)
selective drug sensitivity score [1]: 0.88
selective drug sensitivity score [2]: 1.58
selective drug sensitivity score [3]: 5.98

NC(=O)NO [Hydroxyurea] (top concentration 1000000 nM)
selective drug sensitivity score [1]: -1.74
selective drug sensitivity score [2]: -1.24
selective drug sensitivity score [3]: 6.66

Cc1ccc(NC(=O)c2ccc(CN3CCN(C)CC3)cc2)cc1Nc1nccc(-c2cccnc2)n1 [Imatinib] (top concentration 10000 nM)
selective drug sensitivity score [1]: 3.06
selective drug sensitivity score [2]: 1.06
selective drug sensitivity score [3]: 7.96

CC(C)NC[C@@H](C(=O)N1CCN(c2ncnc3c2[C@H](C)C[C@H]3O)CC1)c1ccc(Cl)cc1 [Ipatasertib] (top concentration 10000 nM)
selective drug sensitivity score [1]: -0.3
selective drug sensitivity score [2]: 0.9
selective drug sensitivity score [3]: 0.3

CCC(C)n1ncn(-c2ccc(N3CCN(c4ccc(OCC5COC(Cn6cncn6)(c6ccc(Cl)cc6Cl)O5)cc4)CC3)cc2)c1=O (stereo not drawn) [Itraconazole] (top concentration 5000 nM)
selective drug sensitivity score [1]: 1.88
selective drug sensitivity score [2]: 5.68
selective drug sensitivity score [3]: 2.08

Cc1sc2c(c1C)C(c1ccc(Cl)cc1)=N[C@@H](CC(=O)OC(C)(C)C)c1nnc(C)n1-2 [JQ1] (top concentration 10000 nM)
selective drug sensitivity score [1]: -2.88
selective drug sensitivity score [2]: 1.32
selective drug sensitivity score [3]: 0.72

CCNC(=O)c1noc(-c2cc(C(C)C)c(O)cc2O)c1-c1ccc(CN2CCOCC2)cc1 [Luminespib] (top concentration 1000 nM)
selective drug sensitivity score [1]: -5.2
selective drug sensitivity score [2]: -2.5
selective drug sensitivity score [3]: 6.7

O=C(c1cccc(Cl)c1F)N1CCN(Cc2cccc(Nc3nccs3)n2)CC1 [MK-8745] (top concentration 10000 nM)
selective drug sensitivity score [1]: 5
selective drug sensitivity score [2]: 7
selective drug sensitivity score [3]: 14.1

Cc1ccc(NC(=O)c2ccc(CN3CCN(C)CC3)cc2)cc1Nc1nc(-c2cccnc2)cs1 [Masitinib] (top concentration 10000 nM)
selective drug sensitivity score [1]: 3.32
selective drug sensitivity score [2]: -4.18
selective drug sensitivity score [3]: 6.02

CCN(CC)CCCC(C)Nc1c2ccc(Cl)cc2nc2ccc(OC)cc12 (stereo not drawn) [Mepacrine] (top concentration 50000 nM)
selective drug sensitivity score [1]: -5.7
selective drug sensitivity score [2]: -6.8
selective drug sensitivity score [3]: -4.8

COc1ccc(-c2ccc3ncc4c(c3c2)n(-c2ccc(N3CCNCC3)c(C(F)(F)F)c2)c(=O)n4C)cn1 [NVP-BGT226] (top concentration 1000 nM)
selective drug sensitivity score [1]: -0.48
selective drug sensitivity score [2]: -0.18
selective drug sensitivity score [3]: 5.82

COc1nc(N)nc2c1ncn2[C@@H]1O[C@H](CO)[C@@H](O)[C@@H]1O [Nelarabine] (top concentration 10000 nM)
selective drug sensitivity score [1]: -9.72
selective drug sensitivity score [2]: -2.22
selective drug sensitivity score [3]: 1.88

Cc1cn(-c2cc(NC(=O)c3ccc(C)c(Nc4nccc(-c5cccnc5)n4)c3)cc(C(F)(F)F)c2)cn1 [Nilotinib] (top concentration 10000 nM)
selective drug sensitivity score [1]: 0.7
selective drug sensitivity score [2]: 0
selective drug sensitivity score [3]: 12.9

NC(=O)c1cccc2cn(-c3ccc(C4CCCNC4)cc3)nc12 (stereo not drawn) [Niraparib] (top concentration 10000 nM)
selective drug sensitivity score [1]: -2.02
selective drug sensitivity score [2]: -3.32
selective drug sensitivity score [3]: 5.78

COc1ccc(C[C@H](NC(=O)[C@H](C)NC(=O)CN2CCOCC2)C(=O)N[C@@H](Cc2ccccc2)C(=O)[C@@]2(C)CO2)cc1 [ONX-0914] (top concentration 10000 nM)
selective drug sensitivity score [1]: 6.2
selective drug sensitivity score [2]: -2.4
selective drug sensitivity score [3]: 9.9

CC(=O)c1cnc2ccc(-c3cc(Cl)c(O)c(Cl)c3)nc2c1N[C@H]1CC[C@H](CN(C)C)CC1 [OTS167] (top concentration 1000 nM)
selective drug sensitivity score [1]: 4.08
selective drug sensitivity score [2]: -0.42
selective drug sensitivity score [3]: 13.2

COC(=O)C[C@](O)(CCCC(C)(C)O)C(=O)O[C@@H]1C(OC)=C[C@]23CCCN2CCc2cc4c(cc2[C@H]13)OCO4 [Omacetaxine] (top concentration 10000 nM)
selective drug sensitivity score [1]: 13
selective drug sensitivity score [2]: -4.48
selective drug sensitivity score [3]: 4.92

C1=N/C2=N/c3ccc(OCCN4CCCC4)c(c3)COC/C=C/COCc3cccc(c3)C(=C1)N2 [Pacritinib] (top concentration 10000 nM)
selective drug sensitivity score [1]: -4
selective drug sensitivity score [2]: -5.7
selective drug sensitivity score [3]: -3.5

Cc1[nH]c2ccccc2c1CCNCc1ccc(/C=C/C(=O)NO)cc1 [Panobinostat] (top concentration 1000 nM)
selective drug sensitivity score [1]: 2.84
selective drug sensitivity score [2]: 10.1
selective drug sensitivity score [3]: 5.24

Cc1ccc(Nc2nccc(N(C)c3ccc4c(C)n(C)nc4c3)n2)cc1S(N)(=O)=O [Pazopanib] (top concentration 10000 nM)
selective drug sensitivity score [1]: -0.76
selective drug sensitivity score [2]: 0.64
selective drug sensitivity score [3]: 4.34

Nc1nc2[nH]cc(CCc3ccc(C(=O)N[C@@H](CCC(=O)O)C(=O)O)cc3)c2c(=O)[nH]1 [Pemetrexed] (top concentration 10000 nM)
selective drug sensitivity score [1]: 1.58
selective drug sensitivity score [2]: 9.98
selective drug sensitivity score [3]: 28.2

Cc1ccc(C(=O)Nc2ccc(CN3CCN(C)CC3)c(C(F)(F)F)c2)cc1C#Cc1cnc2cccnn12 [Ponatinib] (top concentration 1000 nM)
selective drug sensitivity score [1]: 1.12
selective drug sensitivity score [2]: -2.18
selective drug sensitivity score [3]: 34.4

C[C@]12C=CC(=O)C=C1CC[C@@H]1[C@@H]2[C@@H](O)C[C@@]2(C)[C@H]1CC[C@]2(O)C(=O)CO [Prednisolone] (top concentration 10000 nM)
selective drug sensitivity score [1]: -3
selective drug sensitivity score [2]: 2.2
selective drug sensitivity score [3]: 9.3
